This test concerns the target T1, human DHODH (Homo sapiens, UniProt Q02127).
T1 construct: Prof; M. Löffler, Marburg, Germany (gift, not a commercial vendor)
The test is described as follows: Inhibition Assay of DHODH activity. The class given is biochemical. The note with it: recombinant human DHODH; 50 mM TrisHCl, pH 8,0, 30°C; decrease in absorption at 600 nm. The protocol: 4. Inhibition Assay of DHODH activity
The standard assay mixture contained 50 µM decyclo ubichinone, 100 µM dihydroorotate, 60 µM 2,6-dichloroindophenol, as well as 20 mU DHODH. The volume activity of the recombinant enzyme used was 30 U/ml. Measurements were conducted in 50 mM TrisHCl (150 mM KCl, 0,1% Triton X-100, pH 8,0) at 30°C in a final volume of 1 ml. The components were mixed, and the reaction was started by adding dihydroorotate. The course of reaction was followed by spectrophotometrically measuring the decrease in absorption at 600 nm for 2 min. Inhibitory studies were conducted in a standard assay with additional variable amounts of inhibitor. […] These investigations were carried out with recombinant human as well as with recombinant murine DHODH provided by Prof. M. Löffler, Marburg, Germany [M. Löffler, Chem. Biol. Interact.

Molecules are shown by their SMILES.

T1 sequence (Q02127 whole entry): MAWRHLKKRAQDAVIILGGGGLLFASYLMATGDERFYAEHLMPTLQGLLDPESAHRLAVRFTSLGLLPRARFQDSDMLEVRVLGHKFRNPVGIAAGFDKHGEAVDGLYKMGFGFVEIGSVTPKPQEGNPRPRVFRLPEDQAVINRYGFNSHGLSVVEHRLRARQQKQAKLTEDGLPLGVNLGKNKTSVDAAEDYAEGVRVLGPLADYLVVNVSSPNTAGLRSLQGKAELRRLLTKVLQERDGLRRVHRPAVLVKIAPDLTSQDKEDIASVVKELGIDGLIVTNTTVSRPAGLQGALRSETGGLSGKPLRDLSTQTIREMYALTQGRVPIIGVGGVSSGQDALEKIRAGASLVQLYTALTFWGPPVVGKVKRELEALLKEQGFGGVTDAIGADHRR

As a reminder, the IC50 is the point on the concentration scale where inhibition reaches its midpoint. As to `COc1cccc(-c2ccc(NC(=O)[C@@H]3CCC[C@H]3C(=O)O)c(F)c2)c1` (relative stereo) [Example 1, trans 2-(3-Fluoro-3' methoxy-biphenyl-4-ylcarbamoyl)-cyclopentane carboxylic acid], the IC50 was 5 to 20 µM.
As for `COc1cccc(-c2ccc(NC(=O)[C@H]3CCC[C@H]3C(=O)O)c(F)c2)c1` (relative stereo) [Example 2, cis 2-(3-Fluoro-3' methoxy-biphenyl-4-ylcarbamoyl)-cyclopentane carboxylic acid], the figure is less than 5 µM; as for `O=C(O)C1CCCC1C(=O)Nc1c(F)cc(-c2ccccc2Cl)cc1F` (stereo not drawn) [Example 3, 2-(2'-Chloro-3,5-difluoro-biphenyl-4-ylcarbamoyl)-cyclopentane carboxylic acid], less than 5 µM.
In the case of `COc1ccc(-c2cc(F)c(NC(=O)C3CCCC3C(=O)O)c(F)c2)c(OC)c1` (stereo not drawn) [Example 4, 2-(3,5-Difluoro-2',4'-dimethoxy-biphenyl-4-ylcarbamoyl)-cyclopentane carboxylic acid], the IC50 was in the range of 5 to 20 µM.
For `CCOc1cccc(-c2cc(F)c(NC(=O)C3CCCC3C(=O)O)c(F)c2)c1` (stereo not drawn) [Example 5, 2-(3'-Ethoxy-3,5-difluoro-biphenyl-4-ylcarbamoyl)-cyclopentane carboxylic acid], the IC50 was less than 5 µM.
As for `CCOc1ccccc1-c1cc(F)c(NC(=O)C2CCCC2C(=O)O)c(F)c1` (stereo not drawn) [Example 6, 2-(2'-Ethoxy-3,5-difluoro-biphenyl-4-ylcarbamoyl)-cyclopentane carboxylic acid], the figure is 5 to 20 µM.
In the case of `O=C(O)C1CCCC1C(=O)Nc1ccc(-c2ccccc2)cc1` (stereo not drawn) [Example 7, 2-(Biphenyl-4-ylcarbamoyl)-cyclopentane carboxylic acid], the IC50 is less than 5 µM.
With `O=C(O)C1CCCC1C(=O)Nc1c(F)c(F)c(-c2cccc(OC(F)(F)F)c2)c(F)c1F` (stereo not drawn) [Example 8, 2-(2,3,5,6-Tetrafluoro 3'-trifluoromethoxy-biphenyl-4-ylcarbamoyl)-cyclo-pentane carboxylic acid], the IC50 was less than 5 µM.
With `O=C(O)C1CCCC1C(=O)Nc1c(F)cc(-c2cccc(OC(F)(F)F)c2)cc1F` (stereo not drawn) [Example 9, 2-(3,5-Difluoro-3'-trifluoromethoxy-biphenyl-4-ylcarbamoyl)-cyclopentane carboxylic acid], the IC50 was less than 5 µM.

Values taken from patent EP1541198A1, “Cycloalkyl compounds as anti-inflammatory, immunomodulatory and anti-proliferatory agents” (4SC AG, priority 2003, dated 2005).
